According to ChEMBL document CHEMBL4507294, “Data for DCP probe MSD-CYP11B2” (2021):

What was measured:
[1] = target: Tyrosine-protein kinase ABL1 (Homo sapiens) (UniProt P00519); details: Compound concentration 1000.0 nM
[2] = target: Cyclin-dependent kinase 15 (Homo sapiens) (UniProt Q96Q40); details: Compound concentration 1000.0 nM
[3] = target: Ribosomal protein S6 kinase alpha-6 (Homo sapiens) (UniProt Q9UK32); details: Compound concentration 1000.0 nM
[4] = target: Platelet-derived growth factor receptor beta (Homo sapiens) (UniProt P09619); details: Compound concentration 1000.0 nM
[5] = target: Receptor-type tyrosine-protein kinase FLT3 (Homo sapiens) (UniProt P36888); details: Compound concentration 1000.0 nM
[6] = target: Serine/threonine-protein kinase MRCK beta (Homo sapiens) (UniProt Q9Y5S2); details: Compound concentration 1000.0 nM
[7] = target: Serine/threonine-protein kinase TAO3 (Homo sapiens) (UniProt Q9H2K8); details: Compound concentration 1000.0 nM
[8] = target: Focal adhesion kinase 1 (Homo sapiens) (UniProt Q05397); details: Compound concentration 1000.0 nM
[9] = target: Serine/threonine-protein kinase OSR1 (Homo sapiens) (UniProt O95747); details: Compound concentration 1000.0 nM
[10] = target: Serine/threonine-protein kinase Chk2 (Homo sapiens) (UniProt O96017); details: Compound concentration 1000.0 nM
[11] = target: Serine/threonine-protein kinase PRP4 homolog (Homo sapiens) (UniProt Q13523); details: Compound concentration 1000.0 nM
[12] = target: Vascular endothelial growth factor receptor 3 (Homo sapiens) (UniProt P35916); details: Compound concentration 1000.0 nM
[13] = target: T1, Muscarinic acetylcholine receptor M1 (Homo sapiens) (UniProt P11229); details: Compound concentration 10.0 uM
T1 sequence (whole entry): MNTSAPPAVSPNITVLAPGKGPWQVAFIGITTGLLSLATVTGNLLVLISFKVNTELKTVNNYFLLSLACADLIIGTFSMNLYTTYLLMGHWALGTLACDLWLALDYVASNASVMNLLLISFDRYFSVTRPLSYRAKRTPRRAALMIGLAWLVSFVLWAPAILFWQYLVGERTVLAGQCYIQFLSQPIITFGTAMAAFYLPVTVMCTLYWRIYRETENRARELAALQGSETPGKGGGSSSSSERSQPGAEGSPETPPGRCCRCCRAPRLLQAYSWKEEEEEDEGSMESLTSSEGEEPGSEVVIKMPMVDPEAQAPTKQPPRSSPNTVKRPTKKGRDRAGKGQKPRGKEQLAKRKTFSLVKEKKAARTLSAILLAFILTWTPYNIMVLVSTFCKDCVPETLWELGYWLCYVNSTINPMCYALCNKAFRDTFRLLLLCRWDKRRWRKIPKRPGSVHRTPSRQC

[14] = target: Tyrosine-protein kinase SYK (Homo sapiens) (UniProt P43405); details: Compound concentration 1000.0 nM
[15] = target: Receptor tyrosine-protein kinase erbB-2 (Homo sapiens) (UniProt P04626); details: Compound concentration 1000.0 nM
[16] = target: BMP-2-inducible protein kinase (Homo sapiens) (UniProt Q9NSY1); details: Compound concentration 1000.0 nM
[17] = test system: Tyrosine-protein kinase ABL1 (Homo sapiens), P00519 [F317L]; details: Compound concentration 1000.0 nM
Tyrosine-protein kinase ABL1 (Homo sapiens), P00519 [F317L], sequence (P00519 whole entry F317L): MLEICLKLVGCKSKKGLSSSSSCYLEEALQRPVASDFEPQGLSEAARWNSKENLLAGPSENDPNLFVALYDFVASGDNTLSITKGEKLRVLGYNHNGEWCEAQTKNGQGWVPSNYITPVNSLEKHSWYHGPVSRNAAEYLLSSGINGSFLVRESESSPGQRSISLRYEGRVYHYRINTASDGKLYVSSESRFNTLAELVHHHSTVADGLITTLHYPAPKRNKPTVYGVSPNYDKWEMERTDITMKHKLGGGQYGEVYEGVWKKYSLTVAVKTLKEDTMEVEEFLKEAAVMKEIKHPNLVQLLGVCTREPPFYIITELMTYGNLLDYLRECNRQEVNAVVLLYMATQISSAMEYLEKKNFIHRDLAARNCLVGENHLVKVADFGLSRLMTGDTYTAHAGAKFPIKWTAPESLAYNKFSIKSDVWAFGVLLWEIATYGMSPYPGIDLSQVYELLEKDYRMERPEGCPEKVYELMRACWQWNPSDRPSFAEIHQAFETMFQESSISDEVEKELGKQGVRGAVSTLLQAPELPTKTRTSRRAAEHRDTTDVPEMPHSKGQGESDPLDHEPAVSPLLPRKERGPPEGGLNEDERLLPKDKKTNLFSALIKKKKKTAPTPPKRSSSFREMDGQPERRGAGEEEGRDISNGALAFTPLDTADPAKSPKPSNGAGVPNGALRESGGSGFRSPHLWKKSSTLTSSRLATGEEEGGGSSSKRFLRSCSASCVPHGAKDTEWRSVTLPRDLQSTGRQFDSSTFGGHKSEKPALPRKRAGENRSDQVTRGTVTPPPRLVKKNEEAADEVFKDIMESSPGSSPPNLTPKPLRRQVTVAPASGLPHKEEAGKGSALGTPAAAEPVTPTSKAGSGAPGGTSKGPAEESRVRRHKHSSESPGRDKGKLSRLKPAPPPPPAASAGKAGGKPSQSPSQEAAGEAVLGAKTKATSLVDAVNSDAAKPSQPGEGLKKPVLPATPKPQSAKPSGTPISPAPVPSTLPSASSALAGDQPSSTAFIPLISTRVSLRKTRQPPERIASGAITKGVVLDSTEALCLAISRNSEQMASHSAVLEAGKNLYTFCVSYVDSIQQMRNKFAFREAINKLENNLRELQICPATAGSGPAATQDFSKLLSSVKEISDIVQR

[18] = target: Cyclin-dependent kinase 14 (Homo sapiens) (UniProt O94921); details: Compound concentration 1000.0 nM
[19] = target: Tyrosine-protein kinase TXK (Homo sapiens) (UniProt P42681); details: Compound concentration 1000.0 nM
[20] = target: Ephrin type-A receptor 3 (Homo sapiens) (UniProt P29320); details: Compound concentration 1000.0 nM
[21] = target: Serine/threonine-protein kinase WNK2 (Homo sapiens) (UniProt Q9Y3S1); details: Compound concentration 1000.0 nM
Serine/threonine-protein kinase WNK2 (Homo sapiens), sequence (Q9Y3S1 whole entry): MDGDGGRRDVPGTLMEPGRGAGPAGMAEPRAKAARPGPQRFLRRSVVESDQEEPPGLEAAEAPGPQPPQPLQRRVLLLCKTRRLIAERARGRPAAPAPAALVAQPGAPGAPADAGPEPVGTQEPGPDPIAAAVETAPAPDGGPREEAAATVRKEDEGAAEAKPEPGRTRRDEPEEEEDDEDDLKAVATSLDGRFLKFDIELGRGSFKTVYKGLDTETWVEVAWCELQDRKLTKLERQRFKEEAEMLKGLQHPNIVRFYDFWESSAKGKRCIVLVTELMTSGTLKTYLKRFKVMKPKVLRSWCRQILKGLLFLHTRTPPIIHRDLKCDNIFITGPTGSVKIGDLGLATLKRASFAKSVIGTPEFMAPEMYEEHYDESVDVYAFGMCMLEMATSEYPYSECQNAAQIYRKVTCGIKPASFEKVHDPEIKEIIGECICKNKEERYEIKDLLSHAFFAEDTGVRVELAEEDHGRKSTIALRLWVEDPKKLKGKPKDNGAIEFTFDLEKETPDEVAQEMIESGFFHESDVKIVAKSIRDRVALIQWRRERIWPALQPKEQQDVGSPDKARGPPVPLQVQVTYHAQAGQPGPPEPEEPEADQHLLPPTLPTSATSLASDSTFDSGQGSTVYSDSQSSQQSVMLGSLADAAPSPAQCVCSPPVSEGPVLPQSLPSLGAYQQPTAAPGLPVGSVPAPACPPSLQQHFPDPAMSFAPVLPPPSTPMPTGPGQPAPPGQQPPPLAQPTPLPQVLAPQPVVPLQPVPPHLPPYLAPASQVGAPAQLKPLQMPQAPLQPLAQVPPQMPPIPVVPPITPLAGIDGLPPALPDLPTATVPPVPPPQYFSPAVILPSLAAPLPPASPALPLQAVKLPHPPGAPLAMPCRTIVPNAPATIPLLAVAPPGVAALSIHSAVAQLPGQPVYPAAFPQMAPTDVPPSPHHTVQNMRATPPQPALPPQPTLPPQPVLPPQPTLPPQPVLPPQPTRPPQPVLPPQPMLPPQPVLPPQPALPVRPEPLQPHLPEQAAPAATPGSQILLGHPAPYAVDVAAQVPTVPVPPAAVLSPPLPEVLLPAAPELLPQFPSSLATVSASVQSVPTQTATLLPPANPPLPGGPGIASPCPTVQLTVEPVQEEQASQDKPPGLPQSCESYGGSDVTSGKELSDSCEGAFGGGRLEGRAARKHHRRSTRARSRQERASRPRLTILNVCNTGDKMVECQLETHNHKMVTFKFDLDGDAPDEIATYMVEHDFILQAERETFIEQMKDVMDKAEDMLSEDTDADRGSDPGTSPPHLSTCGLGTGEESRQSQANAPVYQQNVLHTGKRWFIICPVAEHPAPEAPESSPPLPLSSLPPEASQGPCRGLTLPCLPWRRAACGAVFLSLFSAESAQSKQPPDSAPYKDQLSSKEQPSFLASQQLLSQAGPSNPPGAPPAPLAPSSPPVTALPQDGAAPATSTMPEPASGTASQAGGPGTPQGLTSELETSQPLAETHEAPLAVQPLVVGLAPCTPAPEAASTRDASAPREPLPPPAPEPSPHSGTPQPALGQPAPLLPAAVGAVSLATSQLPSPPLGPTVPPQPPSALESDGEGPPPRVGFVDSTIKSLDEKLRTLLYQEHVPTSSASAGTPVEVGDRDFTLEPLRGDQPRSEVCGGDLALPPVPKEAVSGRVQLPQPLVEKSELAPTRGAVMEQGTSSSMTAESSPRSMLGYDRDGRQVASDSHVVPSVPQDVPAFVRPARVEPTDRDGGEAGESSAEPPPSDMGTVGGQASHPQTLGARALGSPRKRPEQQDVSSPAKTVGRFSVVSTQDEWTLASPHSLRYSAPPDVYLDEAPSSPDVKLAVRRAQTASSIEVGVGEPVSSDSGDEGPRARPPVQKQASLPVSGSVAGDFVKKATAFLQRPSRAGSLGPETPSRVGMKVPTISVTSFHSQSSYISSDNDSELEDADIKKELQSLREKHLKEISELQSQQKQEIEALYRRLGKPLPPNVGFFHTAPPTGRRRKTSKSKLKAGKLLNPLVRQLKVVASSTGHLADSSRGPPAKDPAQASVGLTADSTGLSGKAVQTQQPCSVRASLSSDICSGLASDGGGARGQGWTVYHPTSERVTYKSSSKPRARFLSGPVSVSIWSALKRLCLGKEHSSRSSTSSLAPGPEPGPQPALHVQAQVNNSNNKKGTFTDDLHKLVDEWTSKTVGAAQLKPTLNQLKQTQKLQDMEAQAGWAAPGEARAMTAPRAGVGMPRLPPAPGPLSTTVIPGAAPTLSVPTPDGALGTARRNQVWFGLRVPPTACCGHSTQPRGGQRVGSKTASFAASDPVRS

[22] = target: Serine/threonine-protein kinase tousled-like 2 (Homo sapiens) (UniProt Q86UE8); details: Compound concentration 1000.0 nM
[23] = target: Mitogen-activated protein kinase 11 (Homo sapiens) (UniProt Q15759); details: Compound concentration 1000.0 nM
[24] = target: Mitogen-activated protein kinase kinase kinase 11 (Homo sapiens) (UniProt Q16584); details: Compound concentration 1000.0 nM
[25] = target: Serine/threonine-protein kinase Nek2 (Homo sapiens) (UniProt P51955); details: Compound concentration 1000.0 nM
[26] = target: Tyrosine-protein kinase Fgr (Homo sapiens) (UniProt P09769); details: Compound concentration 1000.0 nM
[27] = target: Phosphatidylinositol 3-kinase catalytic subunit type 3 (Homo sapiens) (UniProt Q8NEB9); details: Compound concentration 1000.0 nM
[28] = target: Tyrosine-protein kinase JAK3 (Homo sapiens) (UniProt P52333); details: Compound concentration 1000.0 nM
Tyrosine-protein kinase JAK3 (Homo sapiens), sequence (P52333 whole entry): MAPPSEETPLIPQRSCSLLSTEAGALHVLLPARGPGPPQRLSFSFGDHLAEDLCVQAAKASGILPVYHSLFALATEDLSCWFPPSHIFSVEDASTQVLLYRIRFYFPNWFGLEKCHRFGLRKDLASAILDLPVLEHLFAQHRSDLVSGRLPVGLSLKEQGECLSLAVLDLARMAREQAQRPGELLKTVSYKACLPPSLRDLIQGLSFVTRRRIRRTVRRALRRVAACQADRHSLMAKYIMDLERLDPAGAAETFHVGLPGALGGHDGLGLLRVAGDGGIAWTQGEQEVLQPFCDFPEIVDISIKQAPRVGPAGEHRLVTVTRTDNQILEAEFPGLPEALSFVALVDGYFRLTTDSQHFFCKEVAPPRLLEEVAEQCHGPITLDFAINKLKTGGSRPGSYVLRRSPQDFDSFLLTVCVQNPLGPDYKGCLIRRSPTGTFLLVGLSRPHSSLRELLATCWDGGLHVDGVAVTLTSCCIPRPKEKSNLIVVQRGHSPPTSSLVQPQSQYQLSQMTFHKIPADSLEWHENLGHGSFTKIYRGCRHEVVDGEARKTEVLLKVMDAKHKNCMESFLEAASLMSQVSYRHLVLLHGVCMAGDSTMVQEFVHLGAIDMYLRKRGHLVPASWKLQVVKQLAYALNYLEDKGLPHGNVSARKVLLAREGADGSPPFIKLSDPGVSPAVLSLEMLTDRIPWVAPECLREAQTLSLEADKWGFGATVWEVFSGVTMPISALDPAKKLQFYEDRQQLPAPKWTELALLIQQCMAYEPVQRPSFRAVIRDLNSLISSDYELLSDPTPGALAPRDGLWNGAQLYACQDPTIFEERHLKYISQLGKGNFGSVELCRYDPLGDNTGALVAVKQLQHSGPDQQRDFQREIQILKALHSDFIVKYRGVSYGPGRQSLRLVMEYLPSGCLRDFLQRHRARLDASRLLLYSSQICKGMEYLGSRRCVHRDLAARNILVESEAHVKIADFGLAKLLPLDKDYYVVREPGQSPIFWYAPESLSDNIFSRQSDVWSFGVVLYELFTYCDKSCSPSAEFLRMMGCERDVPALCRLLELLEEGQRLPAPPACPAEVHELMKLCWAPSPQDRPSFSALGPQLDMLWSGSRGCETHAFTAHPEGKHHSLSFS

[29] = target: Interferon-induced, double-stranded RNA-activated protein kinase (Homo sapiens) (UniProt P19525); details: Compound concentration 1000.0 nM
Interferon-induced, double-stranded RNA-activated protein kinase (Homo sapiens), sequence (P19525 whole entry): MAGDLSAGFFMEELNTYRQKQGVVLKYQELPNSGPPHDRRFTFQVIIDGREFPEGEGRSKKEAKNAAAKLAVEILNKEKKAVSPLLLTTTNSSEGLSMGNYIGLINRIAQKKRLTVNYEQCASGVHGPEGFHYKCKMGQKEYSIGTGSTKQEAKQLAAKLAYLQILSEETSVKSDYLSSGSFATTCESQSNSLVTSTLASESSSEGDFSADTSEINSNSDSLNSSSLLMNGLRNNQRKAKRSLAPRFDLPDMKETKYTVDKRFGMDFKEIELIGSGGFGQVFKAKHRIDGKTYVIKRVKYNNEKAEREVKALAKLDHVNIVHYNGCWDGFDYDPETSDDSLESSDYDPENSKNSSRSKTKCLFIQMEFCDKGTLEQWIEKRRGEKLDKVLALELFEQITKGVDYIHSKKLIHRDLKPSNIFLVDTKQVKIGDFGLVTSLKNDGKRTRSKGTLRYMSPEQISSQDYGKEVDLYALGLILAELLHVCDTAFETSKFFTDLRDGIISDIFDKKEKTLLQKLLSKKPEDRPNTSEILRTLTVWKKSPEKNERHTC

[30] = target: Activin receptor type-1B (Homo sapiens) (UniProt P36896); details: Compound concentration 1000.0 nM
[31] = target: Testis-specific serine/threonine-protein kinase 3 (Homo sapiens) (UniProt Q96PN8); details: Compound concentration 1000.0 nM
[32] = target: Serine/threonine-protein kinase PknB (Mycobacterium tuberculosis) (UniProt P9WI81); details: Compound concentration 1000.0 nM
[33] = target: Serine/threonine-protein kinase ULK3 (Homo sapiens) (UniProt Q6PHR2); details: Compound concentration 1000.0 nM
[34] = target: Casein kinase II subunit alpha (Homo sapiens) (UniProt P68400); details: Compound concentration 1000.0 nM
[35] = target: Serine/threonine-protein kinase 25 (Homo sapiens) (UniProt O00506); details: Compound concentration 1000.0 nM
[36] = target: Interleukin-1 receptor-associated kinase 4 (Homo sapiens) (UniProt Q9NWZ3); details: Compound concentration 1000.0 nM
[37] = target: Interleukin-1 receptor-associated kinase 3 (Homo sapiens) (UniProt Q9Y616); details: Compound concentration 1000.0 nM
[38] = target: Serine/threonine-protein kinase WNK4 (Homo sapiens) (UniProt Q96J92); details: Compound concentration 1000.0 nM
[39] = test system: Mast/stem cell growth factor receptor Kit (Homo sapiens), P10721 [L576P]; details: Compound concentration 1000.0 nM

Tyrosine-protein kinase ABL1 (Homo sapiens), sequence (P00519 whole entry): as the sequence (P00519 whole entry F317L) above, with L317F counted along it

CC(C)(O)c1cncc(-c2nc3ccc(F)cc3n2C2CC2)c1 [MSD-CYP11B2]
inactive: residual activity [1] 89% | residual activity [2] 84% | residual activity [3] 100% | residual activity [4] 100% | residual activity [5] 93% | residual activity [6] 100% | residual activity [7] 100% | residual activity [8] 100% | residual activity [9] 100% | residual activity [10] 100% | residual activity [11] 58% | residual activity [12] 100% | inhibition [13] -4.49% | residual activity [14] 100% | residual activity [15] 100% | residual activity [16] 100% | residual activity [17] 100% | residual activity [18] 100% | residual activity [19] 92% | residual activity [20] 100% | residual activity [21] 100% | residual activity [22] 100% | residual activity [23] 100% | residual activity [24] 100% | residual activity [25] 100% | residual activity [26] 100% | residual activity [27] 100% | residual activity [28] 100% | residual activity [29] 91% | residual activity [30] 99% | residual activity [31] 84% | residual activity [32] 100% | residual activity [33] 95% | residual activity [34] 100% | residual activity [35] 100% | residual activity [36] 100% | residual activity [37] 100% | residual activity [38] 100% | residual activity [39] 100%

FC(F)(F)c1ccc2c(c1)nc(-c1cccnc1)n2C1CC1 [MSD-CYP11B2-Negative-control]
inactive: residual activity [1] 91% | residual activity [2] 100% | residual activity [3] 100% | residual activity [4] 100% | residual activity [5] 93% | residual activity [6] 100% | residual activity [7] 100% | residual activity [8] 100% | residual activity [9] 100% | residual activity [10] 100% | residual activity [11] 98% | residual activity [12] 91% | inhibition [13] -7.11% | residual activity [14] 100% | residual activity [15] 100% | residual activity [16] 100% | residual activity [17] 100% | residual activity [18] 100% | residual activity [19] 100% | residual activity [20] 100% | residual activity [21] 100% | residual activity [22] 100% | residual activity [23] 100% | residual activity [24] 100% | residual activity [25] 100% | residual activity [26] 100% | residual activity [27] 100% | residual activity [28] 100% | residual activity [29] 89% | residual activity [30] 98% | residual activity [31] 65% | residual activity [32] 100% | residual activity [33] 100% | residual activity [34] 100% | residual activity [35] 99% | residual activity [36] 100% | residual activity [37] 100% | residual activity [38] 100% | residual activity [39] 100%
